Data from the supplement of paper PMC10307832.

Assays:
Assay in all cases: relative viability (nuclei count vs DMSO), 5 days (fraction); higher = more cells survive
[1] = compound: Cn1cncc1[C@@](N)(c1ccc(Cl)cc1)c1ccc2c(c1)c(-c1cccc(Cl)c1)cc(=O)n2C [Tipifarnib] + O=C(CCCCCCC(=O)Nc1ccccc1)NO [Vorinostat] (partner 1 µM)
How it was run: (§1)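 After 5 days of treatment, lung cancer cells in 1536-well plates were fixed and stained in a single step (final 0.05% Triton X-100, 1% formaldehyde, 1 ug/ml Hoechst) and their nuclei counted on 4× images. Treatment had been applied by pin tool the day after seeding as one drug alone or as a fixed anchor-drug dose with five library-drug doses (not always all listed) in √10 steps. Relative viability is the nuclei count of treated wells divided by that of vehicle wells, and values are medians of duplicate plates.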

[2] = compound: Cn1cncc1[C@@](N)(c1ccc(Cl)cc1)c1ccc2c(c1)c(-c1cccc(Cl)c1)cc(=O)n2C [Tipifarnib] + CS(=O)(=O)N1CCN(Cc2cc3nc(-c4cccc5[nH]ncc45)nc(N4CCOCC4)c3s2)CC1 [Pictilisib] (partner 1 µM)
How it was run: as §1

[3] = compound: Cn1cncc1[C@@](N)(c1ccc(Cl)cc1)c1ccc2c(c1)c(-c1cccc(Cl)c1)cc(=O)n2C [Tipifarnib] + C[C@@H](Oc1cc(-c2cnn(C3CCNCC3)c2)cnc1N)c1c(Cl)ccc(F)c1Cl [Crizotinib] (partner 1 µM)
How it was run: as §1

[4] = compound: Cn1cncc1[C@@](N)(c1ccc(Cl)cc1)c1ccc2c(c1)c(-c1cccc(Cl)c1)cc(=O)n2C [Tipifarnib] + Cc1nc(Nc2ncc(C(=O)Nc3c(C)cccc3Cl)s2)cc(N2CCN(CCO)CC2)n1 [Dasatinib] (partner 0.075 µM)
How it was run: as §1

Cell Line	relative viability ([1]; first compound 0.01 µM)	relative viability ([1]; first compound 0.03162 µM)	relative viability ([1]; first compound 0.1 µM)	relative viability ([1]; first compound 0.3162 µM)	relative viability ([1]; first compound 1 µM)	relative viability ([2]; first compound 0.01 µM)	relative viability ([2]; first compound 0.03162 µM)	relative viability ([2]; first compound 0.1 µM)	relative viability ([2]; first compound 0.3162 µM)	relative viability ([2]; first compound 1 µM)	relative viability ([3]; first compound 0.01 µM)	relative viability ([3]; first compound 0.03162 µM)	relative viability ([3]; first compound 0.1 µM)	relative viability ([3]; first compound 0.3162 µM)	relative viability ([3]; first compound 1 µM)	relative viability ([4]; first compound 0.01 µM)	relative viability ([4]; first compound 0.03162 µM)	relative viability ([4]; first compound 0.1 µM)	relative viability ([4]; first compound 0.3162 µM)	relative viability ([4]; first compound 1 µM)
201T	1.04	0.965	0.908	0.839	0.583	0.633	0.682	0.664	0.559	0.551	1.05	0.909	0.987	0.954	0.885	0.572	0.619	0.582	0.58	0.498
A549						0.53	0.44	0.387	0.256	0.22	0.499	0.313	0.238	0.155	0.121					
A-427	0.839	0.849	0.621	0.8	0.655	0.675	0.511	0.673	0.677	0.373	1.01	0.866	0.782	0.732	0.844	0.753	0.719	0.598	0.494	0.326
ABC-1	1.16	0.481	0.781	0.593	0.613	0.808		0.623	0.583	0.492	1.05		0.609	0.676	0.452	0.608		0.567	0.483	0.473
BEN	0.597	0.488	0.538	0.464	0.422	0.543	0.587	0.543	0.472	0.417	0.928	0.939	0.731	0.684	0.636	0.313	0.294	0.321	0.255	0.254
CAL-12T	0.701	0.519	0.454	0.324	0.29	0.388	0.329	0.384	0.414	0.32	0.567	0.387	0.334	0.173	0.228	0.256	0.287	0.519	0.198	0.18
COR-L23	0.541	0.34	0.316	0.221	0.252	0.816	0.509	0.458	0.383	0.298	0.731	0.341	0.3	0.248	0.386	0.59	0.406	0.365	0.264	0.2
COR-L 105	0.982	0.75	0.605	0.504	0.478	0.47	0.33	0.357	0.353	0.355	0.538	0.392	0.383	0.407	0.317	0.32	0.355	0.341	0.327	0.255
Calu-6						0.891	0.641	0.555	0.442	0.386	0.694	0.566	0.452	0.434	0.344					
ChaGo-K-1	0.772	0.706	0.752	0.691	0.297	0.694	0.8	0.71	0.618	0.542	1.12	1.23	0.762	0.992	0.484	0.622	0.56	0.589	0.525	0.324
EKVX	0.76	0.634	0.549	0.439	0.53	0.477	0.4	0.455	0.339	0.355	0.932	0.936	0.733	0.618	0.581	0.543	0.613	0.512	0.508	0.641
EMC-BAC-2	0.355	0.386	0.233	0.338	0.191	0.573	0.509	0.467	0.525	0.366	0.737	0.621	0.659	0.534	0.526	0.324	0.336	0.319	0.305	0.258
EPLC-272H	0.4	0.457	0.371	0.233	0.139	0.339	0.265	0.392	0.283	0.186	1	0.722	0.766	0.64	0.265	0.417	0.285	0.296	0.304	0.158
H3255	0.863	0.702	0.671	0.576	0.488	0.565	0.449	0.416	0.375	0.395	0.834	0.9	0.708	0.519	0.543	0.3	0.375	0.421	0.463	0.344
HARA	0.513	0.406	0.364	0.325	0.326	0.403	0.373	0.313	0.362	0.148	1.07	0.917	1	1.01	1.02	0.255	0.366	0.296	0.299	0.168
HCC-15	0.833	0.701	0.673	0.589	0.53	0.629	0.547	0.556	0.426	0.224	0.666	0.601	0.396	0.41	0.448	0.627	0.556	0.444	0.377	0.168
HCC-44	0.963	1.04	1.01	0.903	0.881	0.667	0.619	0.451	0.262	0.363	0.749	0.698	0.599	0.576	0.568					
